Where “and” joins values, the source holds several entries; their conditions need not be identical. Equal entries are not always repeated.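 Dose response: 5 concentrations. Exposure: 48 h. Format: 96-well plates. Endpoint: linear interpolation; highest concentration if not reached. GI50 is the concentration that inhibits growth by half. TGI is the concentration that stops growth completely.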
Legend:
Assay in all cases: growth of human tumour cells (NCI), 48 h
M14 melanoma = system: M14 melanoma
HOP-62 NSCLC = system: HOP-62 NSCLC
SNB-19 CNS = system: SNB-19 CNS
HCT-15 colon = system: HCT-15 colon
MALME-3M melanoma = system: MALME-3M melanoma
NCI-H23 lung = system: NCI-H23 lung
OVCAR-4 ovarian = system: OVCAR-4 ovarian
T-47D breast = system: T-47D breast
SNB-75 CNS = system: SNB-75 CNS
NCI-H226 lung = system: NCI-H226 lung

SMILES	GI50 (M14 melanoma)	TGI (M14 melanoma)	GI50 (HOP-62 NSCLC)	TGI (HOP-62 NSCLC)	GI50 (SNB-19 CNS)	TGI (SNB-19 CNS)	GI50 (HCT-15 colon)	TGI (HCT-15 colon)	GI50 (MALME-3M melanoma)	TGI (MALME-3M melanoma)	GI50 (NCI-H23 lung)	TGI (NCI-H23 lung)	GI50 (OVCAR-4 ovarian)	TGI (OVCAR-4 ovarian)	GI50 (T-47D breast)	TGI (T-47D breast)	GI50 (SNB-75 CNS)	TGI (SNB-75 CNS)	GI50 (NCI-H226 lung)	TGI (NCI-H226 lung)
FC(F)(F)c1cccc(Nc2nc(-c3ccccc3)nc3ncccc23)c1	3.79 µM	16.5 µM	7.18 µM	22.2 µM	7.68 µM	37.3 µM	3.28 µM	23.7 µM	5.63 µM	28.7 µM	5.03 µM	28.4 µM	8.05 µM	45.6 µM	3.53 µM	15.2 µM	7.85 µM	31.3 µM	6.25 µM	35.6 µM
COC(=O)/C=C1\S/C(=N\NC(=O)c2cc3ccc2/C=C\c2ccc(cc2)/C=C\3)N(c2ccccc2)C1=O	3.27 µM	15.4 µM	2.68 µM	6.97 µM	1.95 µM	4.25 µM	1.87 µM	4.05 µM	3.27 µM	21.4 µM	1.95 µM	4.15 µM	3.17 µM	9.88 µM	1.54 µM	3.65 µM	5.44 µM	> 100 µM	4.38 µM	25.5 µM
NS(=O)(=O)OC[C@@H]1C[C@@H](n2ccc3c(NC4CCc5ccccc54)ncnc32)C[C@@H]1O (stereo partly specified)	0.712 µM	> 100 µM	3.23 µM	> 46.9 µM	12.5 µM	> 100 µM	2.59 µM	70.1 µM	21.9 µM	> 92.8 µM	1.34 µM	46.1 µM	15.7 µM	> 100 µM	0.0607 µM	63.6 µM	20.8 µM	> 100 µM	0.362 µM	–
OCc1cc2ccccc2c2c3c(ccc12)OCO3	41.2 µM	169 µM	31.6 µM	131 µM	35.6 µM	286 µM	32.5 µM	–	48.1 µM	209 µM	34.1 µM	221 µM	30.6 µM	603 µM	24.1 µM	81.5 µM	18.4 µM	64 µM	23.7 µM	163 µM
Cc1ccc(Cl)c2c(N=Nc3ccccc3[N+](=O)[O-])c(O)[nH]c12	–	> 100 µM	–	> 100 µM	–	> 100 µM	–	> 100 µM	–	> 100 µM	–	> 100 µM	–	> 100 µM	–	> 100 µM	–	> 100 µM	–	> 100 µM
CN(C)c1ccc(/C=C\C2=[N+](C)c3ccccc3C2(C)C)cc1	1.91 µM	> 38.2 µM	0.842 µM	21.6 µM	0.775 µM	38.1 µM	4.18 µM	> 69.7 µM	0.456 µM	16.5 µM	0.299 µM	23.7 µM	0.981 µM	> 59.4 µM	0.634 µM	> 33.2 µM	0.709 µM	19.9 µM	2.68 µM	> 55.2 µM
Cc1cnc(NCCCN(C)C)c2c1[nH]c1ccc3cc(O)ccc3c12	–	2.55 µM	–	1.86 µM	–	3.12 µM	–	17 µM	–	2.2 µM	–	2.04 µM	–	1.19 µM	–	2.78 µM	–	1.87 µM	–	1.73 µM
Fc1ccc(NC(=S)SCc2ccc3c(c2)OCO3)cc1F	–	39.1 µM	–	> 100 µM	–	39.3 µM	–	34.5 µM	–	76.3 µM	–	51.6 µM	–	> 100 µM	–	33 µM	–	66.8 µM	–	> 100 µM
Cc1nc2sccn2c1-c1csc(Nc2ccccc2Cl)n1	3.38 µM	18 µM	4.75 µM	70.5 µM	10.3 µM	> 100 µM	2.64 µM	32.5 µM	3.55 µM	22.1 µM	2.28 µM	35.4 µM	2.35 µM	83.5 µM	2.33 µM	66.5 µM	4.08 µM	60.3 µM	3.38 µM	45.1 µM
O=C(Nc1ccc(-n2ccc3c(NC(=O)c4ccccc4)nccc32)cc1)c1ccc(Cl)c(C(F)(F)F)c1	1.92 µM	10.7 µM	3.4 µM	13.2 µM	1.18 µM	13.1 µM	0.0275 µM	2.83 µM	4.13 µM	14.7 µM	7.16 µM	> 32.9 µM	1.61 µM	8.55 µM	6.2 µM	20.4 µM	0.625 µM	16.5 µM	6.17 µM	> 50 µM
Nc1ccccc1C#C/C=C\C#Cc1ccccc1OC(F)(F)F	3.86 µM	17.8 µM	6.1 µM	20.6 µM	2.55 µM	9.72 µM	4 µM	20 µM	11.4 µM	38.1 µM	6.44 µM	80.2 µM	11.6 µM	42 µM	4.19 µM	74.1 µM	2.47 µM	7.85 µM	14 µM	40.3 µM
COc1cc2c(c(OC)c1OC)-c1ccc(NNC(N)=S)c(=O)cc1[C@@H](NC(C)=O)CC2	0.284 µM	0.735 µM	0.739 µM	> 100 µM	0.558 µM	> 100 µM	4.23 µM	> 100 µM	2.8 µM	> 100 µM	0.414 µM	> 49.9 µM	0.625 µM	> 100 µM	> 100 µM	> 100 µM	–	> 100 µM	–	> 100 µM
Nc1c(C(=O)c2cccc(CCS(N)(=O)=O)c2)cnn1-c1ccc(F)cc1	> 25 µM	> 25 µM	> 25 µM	> 25 µM	> 25 µM	> 25 µM	> 25 µM	> 25 µM	> 25 µM	> 25 µM	> 25 µM	> 25 µM	> 25 µM	> 25 µM	> 20.6 µM	> 25 µM	> 25 µM	> 25 µM	> 19.7 µM	> 25 µM
COc1cccc(-c2cc(-c3cccc(NS(C)(=O)=O)c3)nc(N)c2C#N)c1O	0.0837 µM	> 100 µM	0.135 µM	> 100 µM	0.486 µM	> 100 µM	0.0824 µM	> 100 µM	0.0465 µM	93.4 µM	0.341 µM	> 100 µM	0.61 µM	> 100 µM	0.317 µM	58.6 µM	0.0797 µM	5.15 µM	0.372 µM	> 100 µM
CCOC(=O)Cn1c(C(F)(F)F)nc2nc(Cl)c(Cl)nc21	–	> 100 µM	–	60.4 µM	–	> 96.2 µM	–	> 100 µM	–	> 100 µM	–	> 87.4 µM	–	30.2 µM	–	> 100 µM	–	> 100 µM	–	> 100 µM
C=C(C)C(OC)C(O)CC1(C)CC(O)CC(C)(C2CCC3OC(C4(C)CCC(Br)C(C)(C)O4)CCC3(C)O2)O1 (stereo unspecified)	17.4 µM	32.7 µM	17.4 µM	32.6 µM	3.28 µM	39 µM	26.2 µM	> 68 µM	14.9 µM	32.5 µM	16 µM	34.6 µM	23.1 µM	44.2 µM	2.27 µM	22.2 µM	27.4 µM	> 61.5 µM	18.8 µM	41.2 µM
COC([CH2][Hg][n]1cnc2c1c(=O)n(C)c(=O)n2C)CN1C(=O)c2ccccc2S1(=O)=O (stereo unspecified)	> 100 µM	> 100 µM	> 100 µM	> 100 µM	> 100 µM	> 100 µM	> 100 µM	> 100 µM	> 100 µM	> 100 µM	> 100 µM	> 100 µM	> 100 µM	> 100 µM	> 100 µM	> 100 µM	> 100 µM	> 100 µM	> 100 µM	> 100 µM
Cc1ccc([N+](=O)[O-])cc1NC1=NCCO1	–	> 100 µM	–	> 100 µM	–	> 100 µM	–	> 100 µM	–	> 100 µM	–	> 100 µM	–	> 100 µM	–	> 100 µM	–	> 100 µM	–	> 100 µM
O=C(Nc1ccccc1)c1c(O)[nH]c(=S)[nH]c1=O	–	108 µM	73.2 µM	82.5 µM and > 250 µM	40.7 µM	118 µM and > 250 µM	84.3 µM	72.2 µM and > 250 µM	58.5 µM	96.6 µM and > 250 µM	83.6 µM	82.6 µM and > 250 µM	87.2 µM	103 µM and > 250 µM	–	105 µM	–	91.9 µM	–	107 µM
COC1/C=C/OC2(C)Oc3c(C)c(O)c4c(O)c(c(/C=N/Nc5ccc([N+](=O)[O-])cc5[N+](=O)[O-])c(O)c4c3C2=O)NC(=O)C(C)=C/C=C/C(C)C(O)C(C)C(O)C(C)C(OC(C)=O)C1C (stereo unspecified)	1.61 µM	5.86 µM	2.47 µM	25.5 µM	3.92 µM	18.1 µM	5.86 µM	31.1 µM	1.21 µM	6.13 µM	1.7 µM	7.02 µM	2.9 µM	> 50 µM	2.07 µM	> 50 µM	1.8 µM	10.3 µM	1.35 µM	3.89 µM
CC1CCc2nc[nH]c(=O)c21 (stereo unspecified)	> 100 µM	> 100 µM	> 100 µM	> 100 µM	> 100 µM	> 100 µM	> 100 µM	> 100 µM	> 100 µM	> 100 µM	> 100 µM	> 100 µM	> 100 µM	> 100 µM	> 100 µM	> 100 µM	> 100 µM	> 100 µM	> 100 µM	> 100 µM
Cn1cc(C2=C(c3c4n(c5ccccc35)CCCCC4)C(=O)NC2=O)c2ccccc21	4.69 µM	> 25 µM	> 12.5 µM	> 25 µM	> 18.1 µM	> 25 µM	1.69 µM	> 25 µM	> 11.5 µM	> 25 µM	10.6 µM	> 25 µM	7.32 µM	> 25 µM	8.64 µM	> 25 µM	1.4 µM	11.6 µM	12 µM	> 25 µM
CN1CCCCC1CCN1c2ccccc2Sc2ccc(Cl)cc21 (stereo unspecified)	2.02 µM	3.97 µM	10.1 µM	24.2 µM	6.7 µM	21.5 µM	2.93 µM	11.7 µM	2.1 µM	4.25 µM	10.7 µM	26.8 µM	3.66 µM	16 µM	4.25 µM	18.8 µM	1.54 µM	6.19 µM	12.9 µM	32.1 µM
COc1ccc2c(c1)sc1nc(-c3ccccc3)c(-c3cccc4ccccc34)n12	0.475 µM	> 100 µM	0.538 µM	–	0.589 µM	> 100 µM	0.47 µM	> 38.4 µM	> 100 µM	> 100 µM	1.21 µM	> 100 µM	2.87 µM	> 100 µM	4.38 µM	> 62.2 µM	0.386 µM	> 100 µM	0.604 µM	5.28 µM
C=CCOc1ccc2c(C)cc(=O)oc2c1C	–	> 100 µM	–	> 100 µM	–	> 100 µM	–	> 100 µM	–	> 100 µM	–	> 100 µM	–	> 100 µM	–	> 100 µM	–	> 100 µM	–	> 100 µM

From PubChem BioAssay (NCI)
